{"source": "patent US20260216166A1", "about": "“COMPOUND FOR TREATMENT OF ERECTILE DYSFUNCTION” (Initiator Pharma A/S, priority 2023, published 2026)", "key": {"healthy male subjects": {"system": "healthy male subjects", "assay": "Phase I ascending single oral dose safety and tolerability in healthy male subjects", "type": "in vivo, human", "procedure": "The study was a Phase I, randomised, double-blind, placebo-controlled, ascending single oral dose, safety, tolerability, pharmacokinetic (PK) and pharmacodynamics (PD) study of IP2015 in healthy male subjects.\nEach subject received one oral dose of IP2015 or matched placebo. The starting dose of IP2015 was 0.01 mg in Cohort 1. The dose level was to be escalated to a maximum of 0.05 mg in Cohort 2 and a maximum of 0.2 mg in Cohort 3. The doses in the remaining five cohorts were to be determined based on the dose escalation criteria. In every cohort, no more than 2 subjects were dosed on the first dosing day (1 active; 1 placebo) such that no more than 1 subject received an active IP2015 dose for the first time at each dose level.\nThe doses used in each cohort were as follows: • Cohort 1-0.01 mg • Cohort 2-0.05 mg • Cohort 3-0.2 mg • Cohort 4-0.6 mg • Cohort 5-1.8 mg • Cohort 6-5.4 mg • Cohort 7-16.2 mg • Cohort 8-10 mg\nThe study evaluated the clinical safety data from adverse event (AE) reporting, 12-lead electrocardiogram (ECG), cardiac telemetry, vital signs (standing and supine blood pressure (BP), heart rate (HR), oral temperature and clinical laboratory evaluations (chemistry, haematology, urinalysis) and physical examinations in healthy male subjects.\nSafety parameters were listed and summarised using descriptive statistics. Pharmacokinetic parameter estimates were calculated using noncompartmental methods. Pharmacokinetic data were listed for each subject/patient and summarised by descriptive statistics."}, "male patients with ED": {"system": "male patients with ED", "assay": "RigiScan assessment during visual stimulus challenge in male patients with ED", "type": "in vivo, human", "set-up": "individual RAU value at the base / individual TAU value at the tip / individual RAU value at the tip / individual TAU value at the base: unit not given here", "text": "The RigiScan Plus Monitor consists of two loops, one to be placed around the base of the penis and the other towards the tip. The ambulatory monitor uses tip and base penile loops that adjust by tightening slightly at discrete time intervals to measure and record penile rigidity and tumescence. Each loop contains a cable that moves freely inside a conduit. Each loop takes a measurement every 15 seconds. The loop gently tightens with a linear force of 4 ounces (114 g) and then immediately releases and the tissue rebounds to its unloaded state. The RigiScan Plus Monitor then takes a tumescence measurement. After the tumescence measurement is taken, it is compared to the previous samples. When a 6 mm increase in tumescence is detected, representing possible erectile activity, the RigiScan Plus Monitor takes a second measurement every 30 seconds. After tumescence is measured, the loops tighten a second time around the circumference of the penis with a linear force of 10 ounces (283.5 g). The RigiScan Plus Monitor takes a measurement when this force is applied to record a cross sectional response to radial compression. This is how rigidity is measured^1. Data were recorded on a monitor strapped to the thigh of the subjects/participants and downloaded onto a computer after the recording session. Subjects/participants were instructed on how to self-apply the RigiScan Plus Monitor by the Investigator and were advised to wear loose fitting clothing during the residential stay at the unit.\nThe study was an exploratory Phase II, randomised, placebo-controlled, double-blind, crossover study, investigating the effects of a single oral dose of IP2015 on erectile function in males with ED. A dose level of 10 mg was selected. Patients were enrolled into two cohorts. Both cohorts participated in two periods (Period 1 and Period 2) and received a single dose of IP2015 and a single dose of placebo.\nPatients were assessed for efficacy using the RigiScan Plus Monitor during the stimulus challenge at predose and 1, 4 and 8-hour postdose on Day 1 of each treatment period.\nThe design of the stimulus challenge is outlined in FIG. 3. Predose and 1, 4 and 8-hour postdose, the patients were asked to watch a 20-minute digital clip in a private room. The digital clip consisted of a 10-minute neutral digital clip followed by a 10-minute digital clip consisting of heterosexual pornography. The study staff started the digital clip and then left the room, during which there was a 1-minute delay before the neutral digital clip commenced. The neutral and pornographic digital clip were different at each assessment. RigiScan assessments were recorded through the assessment period. The RigiScan Plus Monitor was applied for approximately 20 minutes on each occasion. The patient was semi-recumbent during the assessment.\nThe RigiScan measurement parameters were treated as efficacy outcomes and calculated in a similar fashion as in Example 2.\nEffects of IP2015 on PD parameters were analysed with a generalised mixed regression model using a PD parameter as responsible variable, treatment (active and placebo), timepoint, period (1 and 2), sequence (active-placebo, placebo-active), interaction between treatment and timepoint as mixed effects, baseline measurements as a covariate, and patient as a random effect. This model was applied to each PD parameter. The treatment difference between active and placebo at different timepoints together with 95% CIs was derived from the generalized mixed regression model. For a continuous outcome, treatment difference was measured as the difference in LS mean; for a binary outcome, treatment difference was measured as the odds ratio. In case of model non-convergence due to small sample size at some timepoints, those timepoints could be pooled with neighbouring timepoints."}, "[1]": {"conditions": "10 mg, 4 hours postdose, N = 12"}, "[2]": {"conditions": "10 mg, 4 hours postdose, statistically significant"}}, "note": "“Also recorded” adds a separate entry of the source.", "data": [{"smiles": "COc1cc2ccc(OC3CC4CCC(C3)N4)cc2oc1=O", "note": "(centres unmarked) [IP2015, 7-[(8-azabicyclo[3.2.1]octan-3-yl)oxy]-3-methoxy-chromen-2-one]", "values": [{"measurement": "incidence of TEAEs", "setting": "healthy male subjects; 0.01 mg to 10 mg dose range", "result": "lower incidence of treatment-emergent adverse effects (TEAEs) compared to higher doses; also recorded: relatively low; also recorded: lower side effects than doses of 16.2 mg"}, {"measurement": "mean ECG parameters", "setting": "healthy male subjects; 0.01 mg to 10 mg dose range", "result": "no significant treatment- or dose-related trends"}, {"measurement": "vital sign values", "setting": "healthy male subjects; 0.01 mg to 10 mg dose range", "result": "no significant treatment- or dose-related trends"}, {"measurement": "subjects with sustained tachycardia for several hours", "setting": "healthy male subjects; 16.2 mg", "result": 2}, {"measurement": "incidence of side effects", "setting": "healthy male subjects; 16.2 mg compared to 0.01 mg to 10 mg", "result": "increased at 16.2 mg compared to the 0.01 mg to 10 mg dose range"}, {"measurement": "subjects reporting at least one TEAE", "setting": "healthy male subjects; 16.2 mg dose group (all subjects)", "result": 4}, {"measurement": "standing pulse rate", "setting": "healthy male subjects; 16.2 mg, 2, 3, 4, 6, 8, 10 and 12 hours postdose", "result": "increases from baseline"}, {"measurement": "supine pulse rate", "setting": "healthy male subjects; 16.2 mg, 6, 8 and 10 hours postdose", "result": "increases from baseline"}, {"measurement": "heart rate (ECG)", "setting": "healthy male subjects; 16.2 mg, 8 and 12 hours postdose", "result": "increases from baseline"}, {"measurement": "haematology, serum biochemistry or urinalysis data", "setting": "healthy male subjects; healthy males, single oral doses", "result": "no significant treatment- or dose-related trends"}, {"measurement": "total TEAEs", "setting": "healthy male subjects; in the 40 subjects who received IP2015, 0.01-16.2 mg", "result": 32}, {"measurement": "subjects experiencing TEAEs", "setting": "healthy male subjects; of the 40 subjects who received IP2015, 0.01-16.2 mg", "result": 16}, {"measurement": "discontinuation due to a TEAE", "setting": "healthy male subjects; whole Phase I study", "result": "no subjects discontinued due to a TEAE"}, {"measurement": "severity of TEAEs", "setting": "healthy male subjects; whole Phase I study", "result": "majority of events were mild in severity"}, {"measurement": "baseline circumference at the tip, LS mean difference compared to placebo", "setting": "male patients with ED; 10 mg, 1 hour postdose, 95% CI: 0.02, 1.05, significantly higher", "result": 0.53}, {"measurement": "Average event rigidity, Base, LS Mean Difference of IP2015 − Placebo", "setting": "male patients with ED; 10 mg, 4 hours postdose", "result": 6.92, "unit": "%"}, {"measurement": "Average event rigidity, Tip, LS Mean Difference of IP2015 − Placebo", "setting": "male patients with ED; 10 mg, 4 hours postdose", "result": 10.21, "unit": "%"}, {"measurement": "Average events of tumescence, Base, LS Mean Difference of IP2015 − Placebo", "setting": "male patients with ED; 10 mg, 4 hours postdose", "result": 1.05}, {"measurement": "Average events of tumescence, Tip, LS Mean Difference of IP2015 − Placebo", "setting": "male patients with ED; 10 mg, 4 hours postdose", "result": 1.05}, {"measurement": "Baseline circumference, Base, LS Mean Difference of IP2015 − Placebo", "setting": "male patients with ED; 10 mg, 4 hours postdose", "result": "−0.28"}, {"measurement": "Baseline circumference, Tip, LS Mean Difference of IP2015 − Placebo", "setting": "male patients with ED; 10 mg, 4 hours postdose", "result": "−0.21"}, {"measurement": "Event duration, LS Mean Difference of IP2015 − Placebo", "setting": "male patients with ED; 10 mg, 4 hours postdose", "result": "8.20 % of session"}, {"measurement": "RAU, Base, LS Mean Difference of IP2015 − Placebo", "setting": "male patients with ED; 10 mg, 4 hours postdose", "result": 2.33}, {"measurement": "TAU, Tip, LS Mean Difference of IP2015 − Placebo", "setting": "male patients with ED; 10 mg, 4 hours postdose", "result": 1.42}, {"measurement": "Time rigid 80-100%, Base, LS Mean Difference of IP2015 − Placebo", "setting": "male patients with ED; 10 mg, 4 hours postdose", "result": 0.03}, {"measurement": "Total event duration, LS Mean Difference of IP2015 − Placebo", "setting": "male patients with ED; 10 mg, 4 hours postdose", "result": 0.05, "unit": "min"}, {"measurement": "Total events, LS Mean Difference of IP2015 − Placebo", "setting": "male patients with ED; 10 mg, 4 hours postdose", "result": 0.03}, {"measurement": "time rigid 80%-100% at the tip, RAU at the tip and TAU at the base versus placebo", "setting": "male patients with ED; 10 mg, 4 hours postdose", "result": "statistically significant compared to placebo"}, {"measurement": "patients appearing to respond to treatment (individual RAU and TAU values)", "setting": "male patients with ED; 10 mg, 4 hours postdose, 12 patients", "result": 3}, {"measurement": "Average event rigidity, Base, Mean (SD)", "setting": "male patients with ED; [1]", "result": "20.83 (30.61) %"}, {"measurement": "Average event rigidity, Tip, Mean (SD)", "setting": "male patients with ED; [1]", "result": "19.58 (29.42) %"}, {"measurement": "Average events of tumescence, Base, Mean (SD)", "setting": "male patients with ED; [1]", "result": "3.49 (4.35)"}, {"measurement": "Average events of tumescence, Tip, Mean (SD)", "setting": "male patients with ED; [1]", "result": "3.33 (4.16)"}, {"measurement": "Baseline circumference, Base, Mean (SD)", "setting": "male patients with ED; [1]", "result": "7.21 (1.54)"}, {"measurement": "Baseline circumference, Tip, Mean (SD)", "setting": "male patients with ED; [1]", "result": "6.82 (1.16)"}, {"measurement": "Event duration, Mean (SD)", "setting": "male patients with ED; [1]", "result": "17.75 (27.72) % of session"}, {"measurement": "RAU, Base, Mean (SD)", "setting": "male patients with ED; [1]", "result": "3.50 (6.82)"}, {"measurement": "RAU, Tip, Mean (SD)", "setting": "male patients with ED; [1]", "result": "3.25 (6.25)"}, {"measurement": "TAU, Base, Mean (SD)", "setting": "male patients with ED; [1]", "result": "2.83 (4.97)"}, {"measurement": "TAU, Tip, Mean (SD)", "setting": "male patients with ED; [1]", "result": "2.17 (3.59)"}, {"measurement": "Time rigid 80-100%, Base, Mean (SD)", "setting": "male patients with ED; [1]", "result": "0.04 (0.11)"}, {"measurement": "Time rigid 80-100%, Tip, Mean (SD)", "setting": "male patients with ED; [1]", "result": "0.04 (0.10)"}, {"measurement": "Total event duration, Mean (SD)", "setting": "male patients with ED; [1]", "result": "0.09 (0.14) mins"}, {"measurement": "Total events, Mean (SD)", "setting": "male patients with ED; [1]", "result": "0.42 (0.51)"}, {"measurement": "RAU, Tip, LS Mean Difference of IP2015 − Placebo", "setting": "male patients with ED; [2]", "result": 2.54}, {"measurement": "TAU, Base, LS Mean Difference of IP2015 − Placebo", "setting": "male patients with ED; [2]", "result": 1.95}, {"measurement": "Time rigid 80-100%, Tip, LS Mean Difference of IP2015 − Placebo", "setting": "male patients with ED; [2]", "result": 0.03}, {"measurement": "individual RAU value at the base", "setting": "male patients with ED; Patient 176, 4 hours postdose", "result": 21}, {"measurement": "individual RAU value at the tip", "setting": "male patients with ED; Patient 176, 4 hours postdose", "result": 19}, {"measurement": "individual TAU value at the base", "setting": "male patients with ED; Patient 176, 4 hours postdose", "result": 14}, {"measurement": "individual TAU value at the tip", "setting": "male patients with ED; Patient 176, 4 hours postdose", "result": 8}, {"measurement": "individual RAU value at the base", "setting": "male patients with ED; Patient 177, 4 hours postdose", "result": 14}, {"measurement": "individual RAU value at the tip", "setting": "male patients with ED; Patient 177, 4 hours postdose", "result": 13}, {"measurement": "individual TAU value at the base", "setting": "male patients with ED; Patient 177, 4 hours postdose", "result": 11}, {"measurement": "individual TAU value at the tip", "setting": "male patients with ED; Patient 177, 4 hours postdose", "result": 9}, {"measurement": "individual RAU value at the base", "setting": "male patients with ED; Patient 191, 4 hours postdose", "result": 4}, {"measurement": "individual RAU value at the tip", "setting": "male patients with ED; Patient 191, 4 hours postdose", "result": 5}, {"measurement": "individual TAU value at the base", "setting": "male patients with ED; Patient 191, 4 hours postdose", "result": 7}, {"measurement": "individual TAU value at the tip", "setting": "male patients with ED; Patient 191, 4 hours postdose", "result": 7}]}]}
